Among the data in patent US4729995A, “Pyrimidine 2,4-dioxamate compounds and pharmaceutical compositions” (Toyo Boseki Kabushiki Kaisha, priority 1986, dated 1988) are inhibition in vivo and inhibition values, retold here.

For assay [1], the system named is PCA (passive cutaneous anaphylaxis). The assay is described as follows: Passive cutaneous anaphylaxis (PCA) inhibition in rats (Experiment 2). It is filed as in vivo, Wistar rats. The conditions noted are these: Rattus norvegicus, read-out: PCA inhibitory rate; for inhibition in vivo at 3 mg/kg: 3 mg/kg intravenous, 5 minutes before antigen challenge, six rats (Table 5); for inhibition in vivo at 200 mg/kg: 200 mg/kg oral, one hour before induction of PCA, six rats (Table 2); for inhibition in vivo at 30 mg/kg: 30 mg/kg oral. How it is done: Wistar rats (male, weighing about 200 g) were passively sensitized by an intradermal injection of each 0.1 ml of anti-egg albumin rat serum both sides of median line on back of the animals (each two points, totally 4 points). After 48 hours, a mixture (1 ml) of egg albumin and Evans blue was injected via tail vein, by which PCA (passive cutaneous anaphylaxis) was induced. After 30 minutes, the blue colored region was cut out and the amount of color was measured by the method of Katayama et al [cf. Microbiol. Immunol., Vol. 22, page 89 (1978)]. One hour before the induction of PCA, each test compound was orally administered to six rats at a dose of 200 mg/kg per each rat.
In the above experiments, the test compound was orally administered to six rats at a dose of 30 mg/kg per each rat one hour before the antigen challenge.
In the above experiments, the test compound was orally administered to six rats at a dose of 30 mg/kg per each rat 30 minutes before the antigen challenge.
In the above experiments, the test compound was intravenously administered to six rats at a dose of 3 mg/kg per each rat 5 minutes before the antigen challenge.

Assay [2] relates to SRS-A release. As to the kind of experiment: Inhibition of SRS-A release from passively sensitized guinea pig lung suspension, bioassay on isolated guinea pig ileum (Experiment 1). It counts as cell-based, Hartley guinea pig. The conditions noted are these: Cavia porcellus, 37° C, read-out: Release inhibitory rate, SRS-A. As to the method:
(§1) Hartley guinea pig (male, weighing about 400 g) was passively sensitized by an intravenous injection of anti-egg albumin guinea pig serum. 48 hours after the sensitization, the lung was taken out and cut finely to prepare a lung suspension. To the suspension were added a test compound and egg albumin, and the mixture was incubated at 37° C. After the reaction, the mixture was centrifuged, and then the amount of histamine and SRS-A in the supernatant was measured. The amount of histamine was measured by a fluorometry in accordance with the method of May et al [cf. J. Allerg., Vol. 40, page 12 (1970)]. The amount of SRS-A was measured by a bioassay using an isolated guinea pig ileum. That is, the guinea pig ileum was suspended within Magnus vessel, and thereto were added an antihistaminic, an antiacetylcholine agent and a test solution, and based on the shrink of guinea pig ileum, the amount of SRS-A was calculated.

For assay [3], the system named is Histamine release. As to the kind of experiment: Inhibition of histamine release from passively sensitized guinea pig lung suspension (Experiment 1). It counts as cell-based, Hartley guinea pig. The conditions noted are these: Cavia porcellus, 37° C, fluorometry, read-out: Release inhibitory rate, Histamine. How it is done: as §1
Where [4] appears, read: 30 minutes before antigen challenge, six rats (Table 4).
Where [5] appears, read: 1 h, one hour before antigen challenge, six rats (Table 3).

Like-named read-outs stand apart in the source and are kept apart here.

Consider `O=C(O)C(=O)Nc1cc(N2CCOCC2)nc(NC(=O)C(=O)O)n1` [6-morpholinopyrimidine-2,4-dioxamic acid hydrate], for which, in assay [1], the inhibition in vivo at 3 mg/kg worked out at 100%. For the same compound, the results for the inhibition at 100 µM in assay [2] and in assay [3] were 47.3% and 21.2%, respectively.
For `O=C(O)C(=O)Nc1cc(N2CCCCC2)nc(NC(=O)C(=O)O)n1` [6-piperidinopyrimidine-2,4-dioxamic acid hydrate] the same measures were 100%, 43.2% and 20.5%.
Consider `CCCOC(=O)C(=O)Nc1cc(N2CCOCC2)nc(NC(=O)C(=O)OCCC)n1` [di-n-propyl 6-morpholinopyrimidine-2,4-dioxamate], for which the inhibition at 100 µM in assay [2] was 50%; in assay [3], 29.8%.
For `CCCOC(=O)C(=O)Nc1cc(N2CCCCC2)nc(NC(=O)C(=O)OCCC)n1` [di-n-propyl 6-piperidinopyrimidine-2,4-dioxamate], in that order: 52.3% and 31.6%.
For `O=C(Nc1cc(N2CCOCC2)nc(NC(=O)C(=O)OCc2ccccc2)n1)C(=O)OCc1ccccc1` [dibenzyl 6-morpholinopyrimidine-2,4-dioxamate], in that order: 52.6% and 31.1%.
For `O=C(Nc1cc(N2CCCCC2)nc(NC(=O)C(=O)OCc2ccccc2)n1)C(=O)OCc1ccccc1` [dibenzyl 6-piperidinopyrimidine-2,4-dioxamate semihydrate] the same measures were 48.6% and 26.5%.
For `CCOC(=O)C(=O)Nc1cc(Cl)nc(NC(=O)C(=O)OCC)n1` [diethyl 4-chloropyrimidine-2,6-dioxamate monohydrate], the inhibition in vivo at 200 mg/kg in assay [1] (1 h) was found to be 41.7%. The inhibition at 100 µM in assay [2] was found to be 52.7%; in assay [3] it was 24.5%.
As to `CCOC(=O)C(=O)Nc1cc(N2CCN(C)CC2)nc(NC(=O)C(=O)OCC)n1` [diethyl 6-(4-methylpiperazino)pyrimidine-2,4-dioxamate], the results for the inhibition at 100 µM in assay [2] and in assay [3] were 33.3% and 23.7%, respectively.
`CCOC(=O)C(=O)Nc1cc(OC)nc(NC(=O)C(=O)OCC)n1` [diethyl 6-methoxypyrimidine-2,4-dioxamate monohydrate]: in assay [1] (1 h), the inhibition in vivo at 200 mg/kg was 83.4%. The inhibition at 100 µM amounted to 57.6% in assay [2] and 44.2% in assay [3].
For the compound `CCOC(=O)C(=O)Nc1cc(N2CCOCC2)nc(NC(=O)C(=O)OCC)n1` [diethyl 6-morpholinopyrimidine-2,4-dioxamate], the inhibition in vivo at 200 mg/kg in assay [1] (1 h) came to 96.6%. Further, in assay [1] (setting [4]), the inhibition in vivo at 30 mg/kg is 91.7%. The inhibition at 100 µM turned out to be 52.6% in assay [2] and 36.2% in assay [3].
For `CCOC(=O)C(=O)Nc1cc(N2CCCCC2)nc(NC(=O)C(=O)OCC)n1` [diethyl 6-piperidinopyrimidine-2,4-dioxamate], the inhibition in vivo at 200 mg/kg in assay [1] (1 h) was 92.4%. For the same compound, the inhibition in vivo at 3 mg/kg in assay [1] came to 100%. Moreover, the inhibition in vivo at 30 mg/kg in assay [1] (setting [4]) came to 90.6%. Also, the inhibition at 100 µM in assay [2] stood at 46.6%; in assay [3], 12.2%.
For `CCOC(=O)C(=O)Nc1cc(N2CCCC2)nc(NC(=O)C(=O)OCC)n1` [diethyl 6-pyrrolidinopyrimidine-2,4-dioxamate], the inhibition in vivo at 200 mg/kg in assay [1] (1 h) was determined as 87.3%. In addition, in assay [1] (setting [4]), the inhibition in vivo at 30 mg/kg came to 73.1%. The inhibition at 100 µM in assay [2] was 32.8%; in assay [3] it was 16.1%.
Take `CC(C)OC(=O)C(=O)Nc1cc(N2CCOCC2)nc(NC(=O)C(=O)OC(C)C)n1` [diisopropyl 6-morpholinopyrimidine-2,4-dioxamate]: in assay [1], the inhibition in vivo at 3 mg/kg was 100%. Besides, the inhibition at 100 µM stood at 59.9% in assay [2] and 30.8% in assay [3].
As to `COC(=O)C(=O)Nc1cc(N2CCCCCC2)nc(NC(=O)C(=O)OC)n1` [dimethyl 6-homopiperidinopyrimidine-2,4-dioxamate], the inhibition in vivo at 30 mg/kg in assay [1] (setting [5]) turned out to be 76.9%. Moreover, the inhibition at 100 µM in assay [2] is 49.2%; in assay [3], 26.3%.
Take `COC(=O)C(=O)Nc1cc(N2CCOCC2)nc(NC(=O)C(=O)OC)n1` [dimethyl 6-morpholinopyrimidine-2,4-dioxamate]: the inhibition in vivo at 30 mg/kg in assay [1] (setting [5]) is 98.5%. In assay [1], the inhibition in vivo at 3 mg/kg is 100%. Also, the inhibition at 100 µM amounted to 47.3% in assay [2] and 27.7% in assay [3].
Regarding `COC(=O)C(=O)Nc1cc(N2CCCCC2)nc(NC(=O)C(=O)OC)n1` [dimethyl 6-piperidinopyrimidine-2,4-dioxamate], in assay [1] (1 h), the inhibition in vivo at 200 mg/kg came to 85.6%. For the same compound, the inhibition in vivo at 30 mg/kg in assay [1] (setting [4]) was determined as 54.4%. The results for the inhibition at 100 µM in assay [2] and in assay [3] were 50% and 32.1%, respectively.
Take `COC(=O)C(=O)Nc1cc(N2CCCC2)nc(NC(=O)C(=O)OC)n1` [dimethyl 6-pyrrolidinopyrimidine-2,4-dioxamate]: the inhibition in vivo at 30 mg/kg in assay [1] (setting [5]) is 81.2%. Further, the values for the inhibition at 100 µM in assay [2] and in assay [3] were 40.2% and 19.9%, respectively.
